We go through one molecule from patent US11378572B2, “Therapeutic agent for immune cell migration-caused disease and method for screening same” (ZYMEDI CO., LTD., priority 2017, dated 2022).

For one assay, the system named is RAW 264.7 cells. The experiment in a line: Transwell migration assay of monocytes/macrophages. The format is cell-based. Particulars: laminin 421 1 μg/ml, 30 nM-3 μM, 24 hours, concentration-dependent. How it is done:
Among several extracellular matrix (ECM), it was examined which ECM promotes the migration and infiltration of immune cells, typically monocytes/macrophages. A transwell migration assay was performed using collagen (Col), fibronectin (FN) and laminin (LN) as extracellular matrices, and detailed methods were as follows. Transwells (Corning, #3421-5 mm) were coated with gelatin (0.5 mg/ml) and RAW 264.7 cells (1×10^5 cells/well) were seeded into the top chambers. Serum free DMEM (500 μl) containing 10 μg/ml of laminin (laminin mixture, Biolamina), fibronectin or collagen, respectively, was placed in the bottom chambers. After 24 hours, cells were fixed with 70% methanol for 30 minutes and stained with 50% hematoxylin for 30 minutes. After removing non-migrating cells from the top of the membrane with a cotton swab, the membrane was taken and mounted on the slide. Migrating cells on the underside of the membrane were observed and quantified under a high magnification microscope.
Effect of laminin subtypes on the immune cell migration and infiltration was evaluated. A transwell migration assay was performed in the same manner as in Example 1 using LN111, LN211, LN221, LN411, LN421, LN511, and LN521 as various laminin subtype proteins (purchased from Biolamina). Specific sequences of laminin subtypes are referred to α4 chain of SEQ ID NO:4, α2 chain of SEQ ID NO: 10, α5 chain of SEQ ID NO: 11, β2 chain of SEQ ID NO:6, β1 chain of SEQ ID NO: 12, γ1 chain of SEQ ID NO: 8. according to the chain forming each laminin subtype,
For each of the transformed macrophages, a transwell migration assay was performed in the same manner as in Example 1 using 1 μg/ml of laminin 421.
Thus identified agents as inhibiting the translocation of KRS to the plasma membrane was added to the LN421-treated macrophages to perform a transwell migration assay. […] Migrating cells on the underside of the membrane were observed and quantified under a high magnification microscope. […]

Another assay deals with T1, KRS (Mus musculus, UniProt Q99MN1).
T1 construct: KRS, which is expressed in monocytes/macrophages and usually present in the cytoplasmic domain, translocates to the plasma membrane by LN421 treatment; endogenous in cells; host or cells: RAW 264.7
T1 sequence (Q99MN1 whole entry, the tested form may be a part): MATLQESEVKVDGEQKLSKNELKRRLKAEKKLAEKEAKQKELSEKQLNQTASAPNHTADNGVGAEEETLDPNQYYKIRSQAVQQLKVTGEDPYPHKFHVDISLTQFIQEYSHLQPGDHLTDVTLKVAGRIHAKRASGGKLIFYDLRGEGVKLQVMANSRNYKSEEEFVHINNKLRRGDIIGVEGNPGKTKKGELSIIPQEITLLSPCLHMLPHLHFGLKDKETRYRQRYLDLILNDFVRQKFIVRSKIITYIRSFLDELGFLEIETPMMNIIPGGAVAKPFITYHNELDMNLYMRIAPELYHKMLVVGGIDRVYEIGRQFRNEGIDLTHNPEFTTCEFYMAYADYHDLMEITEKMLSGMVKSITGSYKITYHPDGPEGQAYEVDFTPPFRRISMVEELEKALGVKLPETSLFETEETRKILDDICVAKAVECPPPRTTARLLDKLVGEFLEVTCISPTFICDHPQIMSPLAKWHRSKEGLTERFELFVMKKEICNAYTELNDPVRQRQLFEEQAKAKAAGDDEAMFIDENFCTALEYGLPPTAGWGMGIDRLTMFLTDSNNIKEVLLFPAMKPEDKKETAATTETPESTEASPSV
Briefly: KRS level in plasma membrane/cytosol fractions by western blot (KRS translocation to the plasma membrane). Particulars: RAW 264.7 cells, laminin 421 1 μg/ml, 100 nM compound, 12 hours. It counts as cell-based. How it is done: After dispensing RAW 264.7 cells (2×10^6 cells) in 100 mm dish and incubating for 18 hours, cells were treated with LN421 l g/ml in serum free DMEM media and harvested at 0 hour, 12 hour, 24 hour. Proteins of RAW 264.7 cells were separated into the cytosol and membrane fractions using ProteoExtract Subcellular Proteome Extraction Kit (Calbiotech, cat #539790). Obtained proteins were electrophoresed and transferred to PVDF membrane (Milipore) and blocked with 3% skim milk. KRS was then detected by western blot. Specifically, KRS polyclonal antibody (rabbit, Neomics, Co. Ltd. #NMS-01-0005) was added and reacted for 1 hour. Unbound antibody was removed and the membrane was added and reacted with anti-rabbit secondary antibody (ThermoFisher Scientific, #31460). After reacting with the secondary antibody, films were exposed in the dark room using ECL reagent as a substrate. […]
First, in order to determine whether various KRS inhibitor candidates could exert inhibitory effect on the KRS translocation to the plasma membrane, RAW 264.7 cells (2×10^6 cells) were dispensed in 100 mm dishes and incubated for 18 hours, followed by treatment with laminin 421 1 μg/ml in serum free DMEM, and 100 nM of each of various KRS inhibitor candidates, and cells were further incubated for 12 hours. […] Afterwards, KRS was detected by western blot, and the specific method were as described in Example 3. […]

Molecules are shown by their SMILES. “Also recorded” adds a separate entry of the source.

As to `COc1ccc(CCN(Cc2ccc(C(=O)O)cc2)c2nc3cccc(F)c3s2)cc1` [BC-KI-00053, 4-({(7-fluorobenzo[d]thiazol-2-yl)[2-(4-methoxyphenyl)ethyl]amino}methyl)benzoic acid], in the assay on RAW 264.7 cells, the LN421-specific monocyte/macrophage migration result is on record as “noticeably suppressed; also recorded: significantly inhibited”. At KRS, the “level of KRS in the plasma membrane region” value is on record as “reversed; also recorded: significantly lowered”.
